According to ChEMBL document CHEMBL1201862, “PubChem BioAssay data set” (2004):
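Briefly, cells in 96-well plates were exposed to five compound concentrations for 48 h, and endpoints were estimated by linear interpolation. Here, GI50 denotes the concentration required for 50% inhibition of growth.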 Calls of active or inactive are those of the source. No stated cut-off is given here; in the data, active = GI50 up to about 1.1 µM and inactive = higher.

Assays:
Experiment in all cases: NCI-60 cell line screen, 48 h
LXFL 529 = system: LXFL 529
DMS-114 = system: DMS-114
M19-MEL = system: M19-MEL
DMS-273 = system: DMS-273
HOP-18 = system: HOP-18
KM-20L2 = system: KM-20L2
DLD-1 = system: DLD-1
RXF 631 = system: RXF 631
XF498 = system: XF498

| Structure (SMILES) | GI50 (LXFL 529) | GI50 (DMS-114) | GI50 (M19-MEL) | GI50 (DMS-273) | GI50 (HOP-18) | GI50 (KM-20L2) | GI50 (DLD-1) | GI50 (RXF 631) | GI50 (XF498) |
| --- | --- | --- | --- | --- | --- | --- | --- | --- | --- |
| O=c1ccc2ccccc2c2ccccc12 | 2.95 µM (inactive) | 2.41 µM (inactive) | 3.15 µM (inactive) | 3.33 µM (inactive) | 3.52 µM (inactive) | 1.94 µM (inactive) | 3.39 µM (inactive) | – | – |
| Nc1nc(N)c(-c2ccccc2)c(C(=O)Nc2ccc(Cl)c(Cl)c2)n1 | > 100 µM (inactive) | > 100 µM (inactive) | > 100 µM (inactive) | > 100 µM (inactive) | > 100 µM (inactive) | > 100 µM (inactive) | > 100 µM (inactive) | > 100 µM (inactive) | – |
| Cc1cccc(/C=N/C23CC4CC(CC(C4)C2)C3)c1 | – | > 100 µM (inactive) | > 100 µM (inactive) | > 100 µM (inactive) | > 100 µM (inactive) | > 100 µM (inactive) | > 100 µM (inactive) | – | > 100 µM (inactive) |
| O=C1C(c2ccccc2)=C(c2ccccc2)C(c2ccc(-c3ccc(C4=C(c5ccccc5)C(=O)C(c5ccccc5)=C4c4ccccc4)cc3)cc2)=C1c1ccccc1 | > 100 µM (inactive) | > 100 µM (inactive) | > 100 µM (inactive) | > 100 µM (inactive) | > 100 µM (inactive) | > 100 µM (inactive) | > 100 µM (inactive) | > 100 µM (inactive) | > 100 µM (inactive) |
| COC(=O)N/N=C(/c1nc2ccc([N+](=O)[O-])cc2nc1O)C(O)c1ccc(OC)c(OC)c1 (stereo unspecified) | 87.1 µM (inactive) | 24.7 µM (inactive) | > 100 µM (inactive) | 25 µM (inactive) | > 100 µM (inactive) | > 100 µM (inactive) | > 100 µM (inactive) | 44.5 µM (inactive) | 59.2 µM (inactive) |
| Cc1ccc2c(c1)CN1c3ccc(C)cc3CN2C1c1ccccc1O | 48.8 µM (inactive) | 16.8 µM (inactive) | 41.1 µM (inactive) | 13.5 µM (inactive) | – | – | 26.5 µM (inactive) | – | – |
| CC1OC(CC(=O)O)Cc2c(O)c3c(c(O)c21)C(=O)C=C(C1=CC(=O)c2c(O)c4c(c(O)c2C1=O)CC(CC(=O)O)OC4C)C3=O (stereo unspecified) | 8.81 µM (inactive) | 15 µM (inactive) | 20.1 µM (inactive) | 20.4 µM (inactive) | 22 µM (inactive) | 22.2 µM (inactive) | 12.7 µM (inactive) | – | 17.5 µM (inactive) |
| CC[C@@H](C)[C@H]([C@H](CC(=O)N1CCC[C@@H]1[C@@H](OC)[C@H](C)C(=O)N[C@H](Cc1ccccc1)c1nccs1)OC)N(C)C(=O)[C@H](NC(=O)[C@@H](C(C)C)N(C)C)C(C)C | 0.000502 µM (active) | 0.000288 µM (active) | 0.000208 µM (active) | 0.000159 µM (active) | 0.00407 µM (active) | 6.79e-05 µM (active) | 0.000387 µM (active) | 0.000461 µM (active) | – |
| COC[C@@H]1[C@H]2OC(C)(C)O[C@H]2C(=O)N1C(=O)c1ccc(OC)cc1 | > 100 µM (inactive) | > 100 µM (inactive) | > 100 µM (inactive) | > 100 µM (inactive) | > 100 µM (inactive) | > 100 µM (inactive) | > 100 µM (inactive) | – | > 100 µM (inactive) |
| CCOC(=O)[C@@]12C(C)=CC(=O)O[C@]1(C)C[C@H]2C#N | > 100 µM (inactive) | > 100 µM (inactive) | > 100 µM (inactive) | > 100 µM (inactive) | 15.4 µM (inactive) | > 100 µM (inactive) | > 100 µM (inactive) | – | – |
| COc1cc(Br)c(CC2NCCc3cc(OC)c(OC)cc32)cc1OC (stereo unspecified) | 36.7 µM (inactive) | – | 95.7 µM (inactive) | – | – | 41.2 µM (inactive) | > 100 µM (inactive) | – | 11.7 µM (inactive) |
